How the values were obtained:
[1] = human gut metagenome, 24 h, 2 µM
[2] = human gut metagenome, 24 h, 2 µM; remark: listed apart in the source
[3] = human gut metagenome, 24 h, 2 µM; remark: listed apart in the source
[4] = (§1) The drug is tested on Z-006 corresponding to mouse gut metagenome with ENA study accession number: PRJEB37062 and ENA sample accession number: ERS12561806 for biotransformation under anaerobic condition. The drug concentrations were measured over 9 timepoints collected between 0 and 24 hours of incubation by liquid-chromatography-coupled mass spectrometry (LC–MS); conditions: 2 µM
[5] = as §1, with “WLS-350” for “Z-006”, “human” for “mouse”, “ERS12561789” for “ERS12561806”; conditions: 2 µM
[6] = as §1, with “WLS-073” for “Z-006”, “human” for “mouse”, “ERS12561749” for “ERS12561806”; conditions: 2 µM
[7] = as §1, with “WLS-370” for “Z-006”, “human” for “mouse”, “ERS12561793” for “ERS12561806”; conditions: 2 µM
[8] = as §1, with “Z-007” for “Z-006”, “rat” for “mouse”, “ERS12561807” for “ERS12561806”; conditions: 2 µM
[9] = as §1, with “Z-022” for “Z-006”, “ERS12561821” for “ERS12561806”; conditions: 2 µM
[10] = as §1, with “WLS-052” for “Z-006”, “human” for “mouse”, “ERS12561747” for “ERS12561806”; conditions: 2 µM
[11] = human gut metagenome, 24 h, 2 µM; remark: listed apart in the source
[12] = human gut metagenome, 24 h, 2 µM; remark: listed apart in the source
[13] = as §1, with “Z-013” for “Z-006”, “rabbit” for “mouse”, “ERS12561813” for “ERS12561806”; conditions: 2 µM
[14] = human gut metagenome, 24 h, 2 µM; remark: listed apart in the source
[15] = human gut metagenome, 24 h, 2 µM; remark: listed apart in the source
[16] = human gut metagenome, 24 h, 2 µM; remark: listed apart in the source
[17] = as §1, with “WLS-027” for “Z-006”, “human” for “mouse”, “ERS12561744” for “ERS12561806”; conditions: 2 µM
[18] = as §1, with “Z-021” for “Z-006”, “to” for “to mouse gut”, “ERS12561820” for “ERS12561806”; conditions: 2 µM
[19] = human gut metagenome, 24 h, 2 µM; remark: listed apart in the source
[20] = human gut metagenome, 24 h, 2 µM; remark: listed apart in the source
Further: call rule not given here.

Compound	Bacterial Biotransformation [1]	Bacterial Biotransformation [2]	Bacterial Biotransformation [3]	Bacterial Biotransformation [4]	Bacterial Biotransformation [5]	Bacterial Biotransformation [6]	Bacterial Biotransformation [7]	Bacterial Biotransformation [8]	Bacterial Biotransformation [9]	Bacterial Biotransformation [10]	Bacterial Biotransformation [11]	Bacterial Biotransformation [12]	Bacterial Biotransformation [13]	Bacterial Biotransformation [14]	Bacterial Biotransformation [15]	Bacterial Biotransformation [16]	Bacterial Biotransformation [17]	Bacterial Biotransformation [18]	Bacterial Biotransformation [19]	Bacterial Biotransformation [20]
CN1CCC(=C2c3ccccc3CC(=O)c3sccc32)CC1.O=C(O)/C=C/C(=O)O [KETOTIFEN FUMARATE]	Compound metabolized	Compound metabolized	Compound metabolized	Compound NOT metabolized	Compound NOT metabolized	Compound metabolized	Compound metabolized	Compound NOT metabolized	Compound NOT metabolized	Compound NOT metabolized	Compound NOT metabolized	Compound NOT metabolized	Compound NOT metabolized	Compound metabolized	Compound NOT metabolized	Compound NOT metabolized	Compound NOT metabolized	Compound NOT metabolized	Compound NOT metabolized	Compound NOT metabolized
CN(C)CCC=C1c2ccccc2COc2ccccc21 [DOXEPIN]	Compound NOT metabolized	Compound NOT metabolized	Compound NOT metabolized	Compound NOT metabolized	Compound NOT metabolized	Compound metabolized	Compound metabolized	Compound NOT metabolized	Compound NOT metabolized	Compound NOT metabolized	Compound NOT metabolized	Compound NOT metabolized	Compound NOT metabolized	Compound metabolized	Compound NOT metabolized	Compound NOT metabolized	Compound metabolized	Compound NOT metabolized	Compound NOT metabolized	Compound NOT metabolized
CC(C)c1c(CN(C)C(C)Cc2ccccc2)n(C)n(-c2ccccc2)c1=O (centres undefined) [FAMPROFAZONE]	Compound metabolized	Compound metabolized	Compound metabolized	Compound metabolized	Compound metabolized	Compound metabolized	Compound metabolized	Compound metabolized	Compound metabolized	Compound metabolized	Compound NOT metabolized	Compound metabolized	Compound metabolized	Compound metabolized	Compound metabolized	Compound metabolized	Compound metabolized	Compound metabolized	Compound metabolized	Compound metabolized
O=C(O)c1cc(/N=N/c2ccc(S(=O)(=O)Nc3ccccn3)cc2)ccc1O [SULFASALAZINE]	Compound metabolized	Compound metabolized	Compound metabolized	Compound metabolized	Compound metabolized	Compound metabolized	Compound metabolized	Compound metabolized	Compound metabolized	Compound NOT metabolized	Compound metabolized	Compound metabolized	Compound metabolized	Compound metabolized	Compound metabolized	Compound metabolized	Compound metabolized	Compound metabolized	Compound metabolized	Compound metabolized
COc1ccnc(C[S+]([O-])c2nc3ccc(OC(F)F)cc3[nH]2)c1OC (centres undefined) [PANTOPRAZOLE]	Compound metabolized	Compound metabolized	Compound metabolized	Compound metabolized	Compound metabolized	Compound metabolized	Compound metabolized	Compound NOT metabolized	Compound metabolized	Compound metabolized	Compound metabolized	Compound metabolized	Compound metabolized	Compound metabolized	Compound metabolized	Compound metabolized	Compound metabolized	Compound metabolized	Compound metabolized	Compound metabolized
C[C@]12C=CC(=O)C=C1CC[C@@H]1[C@@H]2C(=O)C[C@@]2(C)[C@H]1CC[C@]2(O)C(=O)CO [PREDNISONE]	Compound metabolized	Compound metabolized	Compound metabolized	Compound metabolized	Compound metabolized	Compound metabolized	Compound metabolized	Compound NOT metabolized	Compound metabolized	Compound metabolized	Compound metabolized	–	Compound NOT metabolized	Compound metabolized	Compound metabolized	Compound metabolized	Compound metabolized	Compound metabolized	Compound metabolized	Compound metabolized
N#Cc1ccc2[nH]cc(CCCCN3CCN(c4ccc5oc(C(N)=O)cc5c4)CC3)c2c1 [VILAZODONE]	–	Compound metabolized	Compound metabolized	Compound metabolized	Compound metabolized	Compound metabolized	Compound metabolized	Compound NOT metabolized	Compound metabolized	Compound metabolized	Compound NOT metabolized	Compound metabolized	Compound metabolized	–	Compound metabolized	Compound metabolized	Compound metabolized	Compound metabolized	Compound metabolized	Compound metabolized
CC1=C(CC(=O)O)c2cc(F)ccc2/C1=C\c1ccc([S+](C)[O-])cc1 (centres undefined)	Compound metabolized	Compound metabolized	Compound metabolized	Compound NOT metabolized	Compound metabolized	Compound metabolized	Compound metabolized	Compound NOT metabolized	Compound NOT metabolized	Compound metabolized	Compound metabolized	–	Compound NOT metabolized	Compound NOT metabolized	Compound metabolized	Compound metabolized	Compound metabolized	Compound NOT metabolized	Compound metabolized	Compound metabolized
C#C[C@]1(OC(C)=O)CC[C@H]2[C@@H]3CCC4=C[C@@H](OC(C)=O)CC[C@@H]4[C@H]3CC[C@@]21C [ETHYNODIOL DIACETATE]	Compound metabolized	Compound metabolized	Compound metabolized	Compound metabolized	Compound metabolized	–	Compound metabolized	Compound metabolized	Compound metabolized	Compound metabolized	Compound metabolized	Compound metabolized	Compound metabolized	Compound metabolized	Compound metabolized	Compound metabolized	–	Compound metabolized	Compound metabolized	Compound metabolized

Source: ChEMBL document CHEMBL5724914, “Linking interpersonal differences in gut microbiota composition and drug biotransformation activity” (2024)
